# Data: ChEMBL document CHEMBL3045530, “Synthesis, antimycobacterial, antiviral, antimicrobial activities, and QSAR studies of isonicotinic acid-1-(substituted phenyl)-ethylidene/cycloheptylidene hydrazides” (Med Chem Res, 2012)
# Key:
# [1] = Cytotoxicity against Homo sapiens (human) HEL cells assessed as alteration in cell morphology by microscopy; format: cell-based; details: for MCC: read-out: MTC
# Aspergillus niger = assay: Antimicrobial activity against Aspergillus niger after 7 days by tube dilution method; format: functional
# Candida albicans = assay: Antimicrobial activity against Candida albicans after 48 hr by tube dilution method; format: functional
# HEL = assay: Cytostatic against Homo sapiens (human) HEL cells assessed as alteration in cell morphology by microscopy; format: ADME, cell-based
# Human alphaherpesvirus 2 = assay: Antiviral activity against Human herpesvirus 2 strain G infected human HEL cells assessed as inhibition of virus-induced cytopathicity by microscopy; format: functional, organism-based; details: Human alphaherpesvirus 2, strain G
# Coxsackievirus B4 [2] = assay: Antiviral activity against Human coxsackievirus B4 infected human HeLa cells assessed as inhibition of virus-induced cytopathicity by microscopy; format: functional, organism-based; details: Enterovirus B
# [3] = Cytotoxicity against Chlorocebus aethiops (African green monkey) Vero cells assessed as alteration in cell morphology by microscopy; format: cell-based; details: chlorocebus sabaeus, read-out: MTC
# Human alphaherpesvirus 1 [4] = assay: Antiviral activity against TK(-) aciclovir-resistant Human herpesvirus 1 strain KOS infected in human HEL cells assessed as inhibition of virus-induced cytopathicity; format: functional, organism-based; details: Human alphaherpesvirus 1, KOS
# Human respirovirus 3 = assay: Antiviral activity against Human parainfluenza virus 3 infected Vero cells assessed as inhibition of virus-induced cytopathicity by microscopy; format: functional, organism-based; details: Human respirovirus 3, Vero
# Coxsackievirus B4 [5] = assay: Antiviral activity against Human coxsackievirus B4 infected Vero cells assessed as inhibition of virus-induced cytopathicity; format: functional, organism-based; details: Enterovirus B
# [6] = tested on: Respiratory syncytial virus; assay: Antiviral activity against Respiratory syncytial virus infected human HeLa cells assessed as inhibition of virus-induced cytopathicity by microscopy; format: functional, organism-based
# [7] = tested on: Human immunodeficiency virus 2; assay: Antiviral activity against Human immunodeficiency virus type 2 (ISOLATE ROD) infected MT4 cells assessed as inhibition of virus-induced cytopathic effect after 4 days by MTT assay; format: functional, organism-based; details: Human immunodeficiency virus 2, ISOLATE ROD, MT4, 96 h
# [8] = tested on: Human immunodeficiency virus 1; assay: Antiviral activity against Human immunodeficiency virus 1 IIIB infected MT4 cells assessed as inhibition of virus-induced cytopathic effect after 4 days by MTT assay; format: functional, organism-based; details: MT4, 96 h
# [9] = tested on: Mammalian orthoreovirus 1; assay: Antiviral activity against Mammalian orthoreovirus 1 infected Vero cells assessed as inhibition of virus-induced cytopathicity by microscopy; format: functional, organism-based; details: Mammalian orthoreovirus 1, Vero
# [10] = tested on: Human herpesvirus 3 strain Oka vaccine; assay: Antiviral activity against Human herpesvirus 3 strain Oka vaccine OKA 07-1 (Varicella zoster virus ) infected in human HEL cells assessed as inhibition of virus-induced cytopathicity; format: functional, organism-based; details: Human alphaherpesvirus 3, HEL
# Escherichia coli = assay: Antimicrobial activity against Escherichia coli after 24 hr by tube dilution method; format: functional
# [11] = tested on: Human herpesvirus 5 strain AD169; assay: Antiviral activity against Human herpesvirus 5 strain AD169 Davis infected human HEL cells assessed as inhibition of virus-induced cytopathicity by microscopy; format: functional, organism-based; details: Human betaherpesvirus 5, Davis
# Vaccinia virus = assay: Antiviral activity against Vaccinia virus infected human HEL cells assessed as inhibition of virus-induced cytopathicity by microscopy; format: functional, organism-based; details: Orthopoxvirus vaccinia
# [12] = Cytotoxicity against Homo sapiens (human) MT4 cells after 4 days by MTT assay; format: cell-based
# Bacillus subtilis = assay: Antimicrobial activity against Bacillus subtilis after 24 hr by tube dilution method; format: functional
# Human alphaherpesvirus 1 [13] = assay: Antiviral activity against Human herpesvirus 1 strain KOS infected human HEL cells assessed as inhibition of virus-induced cytopathicity by microscopy by microscopy; format: functional, organism-based; details: Human alphaherpesvirus 1, KOS
# Sindbis virus = assay: Antiviral activity against Sindbis virus infected Vero cells assessed as inhibition of virus-induced cytopathicity; format: functional, organism-based
# Staphylococcus aureus = assay: Antimicrobial activity against Staphylococcus aureus after 24 hr by tube dilution method; format: functional
# [14] = Cytotoxicity against Homo sapiens (human) HeLa cells assessed as alteration in cell morphology by microscopy; format: cell-based; details: read-out: MTC
# [15] = tested on: Vesicular stomatitis virus; assay: Antiviral activity against Vesicular stomatitis virus infected human HeLa cells assessed as inhibition of virus-induced cytopathicity by microscopy; format: functional, organism-based
# Punta Toro virus = assay: Antiviral activity against Punta Toro virus infected Vero cells assessed as inhibition of virus-induced cytopathicity; format: functional, organism-based
Compound,CC50 [1] [µg/mL],MCC [1] [µg/mL],-logMIC (Aspergillus niger),-logMIC (Candida albicans),Activity (HEL),EC50 (Human alphaherpesvirus 2) [µg/mL],EC50 (Coxsackievirus B4 [2]) [µg/mL],MCC [3] [µg/mL],EC50 (Human alphaherpesvirus 1 [4]) [µg/mL],EC50 (Human respirovirus 3) [µg/mL],EC50 (Coxsackievirus B4 [5]) [µg/mL],EC50 [6] [µg/mL],EC50 [7] [µg/mL],EC50 [8] [µg/mL],EC50 [9] [µg/mL],EC50 [10] [µg/mL],-logMIC (Escherichia coli),CC50 at 96 h [12] [µg/mL],-logMIC (Bacillus subtilis),-logMIC (Staphylococcus aureus),other results
C/C(=N\NC(=O)c1ccncc1)c1ccc(Cl)cc1,20,100,2.34,2.34,Toxic,> 20,> 20,100,> 20,> 20,> 20,> 20,> 88,> 88,> 20,> 20,2.34,88,2.04,2.34,EC50 [11]: > 20 µg/mL; EC50 (Vaccinia virus): > 20 µg/mL; EC50 (Human alphaherpesvirus 1 [13]): > 20 µg/mL; EC50 (Sindbis virus): > 20 µg/mL; MCC [14]: 100 µg/mL; EC50 [15]: > 20 µg/mL; EC50 (Punta Toro virus): > 20 µg/mL
C/C(=N\NC(=O)c1ccncc1)c1ccccc1Br,,,2.41,2.71,Toxic,,,,,,,,,,,,2.41,,2.71,2.41,
NNC(=O)c1ccncc1 [ISONIAZID],,,2.04,2.34,,,,,,,,,,,,,1.74,,1.74,2.04,
C/C(=N\NC(=O)c1ccncc1)c1ccc([N+](=O)[O-])cc1,54,> 100,2.36,2.36,Toxic,> 100,> 20,100,> 100,> 20,> 20,> 20,> 77,> 77,> 20,> 20,2.36,77,2.06,2.06,EC50 [11]: > 20 µg/mL; EC50 (Vaccinia virus): > 100 µg/mL; EC50 (Human alphaherpesvirus 1 [13]): > 100 µg/mL; EC50 (Sindbis virus): > 20 µg/mL; MCC [14]: 100 µg/mL; EC50 [15]: > 20 µg/mL; EC50 (Punta Toro virus): > 20 µg/mL
O=C(NN=C1CCCCCC1)c1ccncc1 [N'-CYCLOHEPTYLIDENEISONICOTINOHYDRAZIDE],> 100,> 100,1.66,1.66,Toxic,> 100,> 100,> 100,> 100,> 100,> 100,> 100,> 86,> 86,> 100,> 100,1.36,86,1.66,1.66,EC50 [11]: > 100 µg/mL; EC50 (Vaccinia virus): > 100 µg/mL; EC50 (Human alphaherpesvirus 1 [13]): > 100 µg/mL; EC50 (Sindbis virus): > 100 µg/mL; MCC [14]: > 100 µg/mL; EC50 [15]: > 100 µg/mL; EC50 (Punta Toro virus): > 100 µg/mL
CCn1cc(C(=O)O)c(=O)c2cc(F)c(N3CCNCC3)cc21 [NORFLOXACIN],,,,,,,,,,,,,,,,,2.61,,2.61,2.61,
COc1ccc(OC)c(/C(C)=N/NC(=O)c2ccncc2)c1,100,> 100,2.38,2.38,Toxic,> 100,> 100,> 100,> 100,> 100,> 100,> 100,> 88,> 88,> 100,> 100,2.68,88,2.08,2.08,EC50 [11]: > 100 µg/mL; EC50 (Vaccinia virus): > 100 µg/mL; EC50 (Human alphaherpesvirus 1 [13]): > 100 µg/mL; EC50 (Sindbis virus): > 100 µg/mL; MCC [14]: > 100 µg/mL; EC50 [15]: > 100 µg/mL; EC50 (Punta Toro virus): > 100 µg/mL
C/C(=N\NC(=O)c1ccncc1)c1ccc(Br)cc1,51,≥ 20,2.41,2.41,Toxic,> 20,> 4,≥ 20,> 20,> 20,> 20,> 4,> 43,> 43,> 20,> 20,2.41,43,2.1,2.1,EC50 [11]: > 20 µg/mL; EC50 (Vaccinia virus): > 20 µg/mL; EC50 (Human alphaherpesvirus 1 [13]): > 20 µg/mL; EC50 (Sindbis virus): > 20 µg/mL; MCC [14]: 20 µg/mL; EC50 [15]: > 4 µg/mL; EC50 (Punta Toro virus): > 20 µg/mL
C/C(=N\NC(=O)c1ccncc1)c1ccc(Cl)cc1Cl,11,> 100,2.39,2.69,Toxic,> 100,> 20,100,> 100,> 20,> 20,> 20,> 38,> 38,> 20,> 20,2.39,38,2.09,2.09,EC50 [11]: > 20 µg/mL; EC50 (Vaccinia virus): > 100 µg/mL; EC50 (Human alphaherpesvirus 1 [13]): > 100 µg/mL; EC50 (Sindbis virus): > 20 µg/mL; MCC [14]: 100 µg/mL; EC50 [15]: > 20 µg/mL; EC50 (Punta Toro virus): > 20 µg/mL
COc1ccc(/C(C)=N/NC(=O)c2ccncc2)c(OC)c1,10,> 100,2.38,2.68,Toxic,> 100,> 4,100,> 100,> 20,> 20,> 4,> 12,> 12,> 20,> 20,2.08,12,2.38,2.38,EC50 [11]: > 20 µg/mL; EC50 (Vaccinia virus): > 100 µg/mL; EC50 (Human alphaherpesvirus 1 [13]): > 100 µg/mL; EC50 (Sindbis virus): > 20 µg/mL; MCC [14]: 20 µg/mL; EC50 [15]: > 4 µg/mL; EC50 (Punta Toro virus): > 20 µg/mL
C/C(=N\NC(=O)c1ccncc1)c1ccc(O)cc1,91,100,2.31,2.31,Toxic,> 20,> 20,≥ 20,> 20,> 20,> 20,> 20,> 95,> 95,> 20,> 20,2.01,95,2.01,2.01,EC50 [11]: > 20 µg/mL; EC50 (Vaccinia virus): > 20 µg/mL; EC50 (Human alphaherpesvirus 1 [13]): > 20 µg/mL; EC50 (Sindbis virus): > 20 µg/mL; MCC [14]: 100 µg/mL; EC50 [15]: > 20 µg/mL; EC50 (Punta Toro virus): > 20 µg/mL
OC(Cn1cncn1)(Cn1cncn1)c1ccc(F)cc1F [FLUCONAZOLE],,,2.64,2.64,,,,,,,,,,,,,,,,,
C/C(=N\NC(=O)c1ccncc1)c1ccccc1O,0.4,100,2.31,2.61,Toxic,1.3,> 0.2,≥ 4,4,> 4,> 4,> 0.2,> 0.5,> 0.5,> 4,1.8,2.31,0.5,2.01,2.01,EC50 [11]: > 0.8 µg/mL; EC50 (Vaccinia virus): 3.5 µg/mL; EC50 (Human alphaherpesvirus 1 [13]): 1.4 µg/mL; EC50 (Sindbis virus): > 4 µg/mL; MCC [14]: 1 µg/mL; EC50 [15]: > 0.2 µg/mL; EC50 (Punta Toro virus): > 4 µg/mL
Cc1ccnc2c1NC(=O)c1cccnc1N2C1CC1 [NEVIRAPINE],,,,,,,,,,,,,> 4,,,,,> 4,,,
Cc1cn([C@H]2C[C@H](N=[N+]=[N-])[C@@H](CO)O2)c(=O)[nH]c1=O [ZIDOVUDINE],,,,,,,,,,,,,,,,,,> 25,,,
